Results: ChEMBL document CHEMBL1132743, “Synthesis and biological evaluation of novel piperidine carboxamide derived calpain inhibitors” (Bioorg Med Chem Lett, 2000)
Square brackets hold non-standard residues; d marks the D form. Peptide text beside a SMILES is read from it. * marks the point of attachment. ξ: configuration not given here. ξF = NC(Cc1ccccc1)C(=O)O; Cbz = O=C(OCc1ccccc1)*

Key:
[1] = target: T1, Calpain-1 catalytic subunit (Homo sapiens, UniProt P07384); assay: Inhibition of Suc-Leu-Tyr-AMC binding to human mu-calpain from erythrocytes; format: biochemical
T1 sequence (P07384 whole entry): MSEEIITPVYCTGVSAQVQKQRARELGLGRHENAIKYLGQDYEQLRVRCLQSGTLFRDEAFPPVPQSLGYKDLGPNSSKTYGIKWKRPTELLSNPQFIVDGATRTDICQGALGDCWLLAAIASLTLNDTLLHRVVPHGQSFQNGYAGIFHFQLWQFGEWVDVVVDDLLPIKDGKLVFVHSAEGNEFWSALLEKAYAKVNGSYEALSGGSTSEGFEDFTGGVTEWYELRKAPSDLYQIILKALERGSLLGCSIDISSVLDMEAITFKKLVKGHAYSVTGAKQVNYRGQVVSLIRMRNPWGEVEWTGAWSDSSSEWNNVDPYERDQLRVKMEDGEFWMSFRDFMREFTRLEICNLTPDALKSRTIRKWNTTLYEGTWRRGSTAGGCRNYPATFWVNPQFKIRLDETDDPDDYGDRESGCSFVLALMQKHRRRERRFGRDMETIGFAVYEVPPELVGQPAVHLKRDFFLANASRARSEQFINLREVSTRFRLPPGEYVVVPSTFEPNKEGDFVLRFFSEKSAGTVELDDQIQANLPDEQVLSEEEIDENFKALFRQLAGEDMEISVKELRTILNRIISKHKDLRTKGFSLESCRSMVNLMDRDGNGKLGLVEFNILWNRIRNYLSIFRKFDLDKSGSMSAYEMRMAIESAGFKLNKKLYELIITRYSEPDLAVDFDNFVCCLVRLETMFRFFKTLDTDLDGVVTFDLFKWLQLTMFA

Mus musculus = organism: Mus musculus; assay: Inhibitory activity of compound was tested for lethal convulsions induced by NMDA in mice; format: functional
Cathepsin B = Cathepsin B (Homo sapiens, UniProt P07858); assay: Inhibition of human Cathepsin B
[2] = Inhibition of calpain-mediated pp60src degradation in platelets; format: functional, Homo sapiens

| Ki [1] [µM] | Compound | also measured |
| --- | --- | --- |
| 1.35 | CC(C)CC(NC(=O)C1CCN(C(=O)/C=C/c2ccccc2)CC1)C(=O)C(N)=O (stereo not given) | – |
| 13.5 | NC(=O)C(=O)C(Cc1ccccc1)NC(=O)C1CCN(C(=O)/C=C/c2ccncc2)CC1 (stereo not given) | – |
| 0.56 | NC(=O)C(=O)C(Cc1ccccc1)NC(=O)C1CCN(C(=O)c2ccccc2)CC1 (stereo not given) | – |
| 0.81 | O=C(NCCCN1CCOCC1)C(=O)C(Cc1ccccc1)NC(=O)C1CCN(S(=O)(=O)c2ccc3ccccc3c2)CC1 (stereo not given) | – |
| 33 | CCC(NC(=O)C1CCN(C(=O)/C=C/c2ccccc2)CC1)C(=O)C(N)=O (stereo not given) | – |
| 0.16 | NC(=O)C(=O)C(Cc1ccccc1)NC(=O)C1CCN(C(=O)c2ccc3ncccc3c2)CC1 (stereo not given) | – |

The remaining lines, values behind:

| Compound | Ki [1] [µM] | also measured |
| --- | --- | --- |
| NC(=O)C(=O)C(Cc1ccccc1)NC(=O)C1CCN(C(=O)c2cnc3ccccc3c2)CC1 (stereo not given) | 0.67 | – |
| NC(=O)C(=O)C(Cc1ccccc1)NC(=O)C1CCN(S(=O)(=O)c2ccc3ccccc3c2)CC1 (stereo not given) | 0.45 | – |
| NC(=O)C(=O)C(Cc1ccccc1)NC(=O)C1CCN(C(=O)c2cc3ccccc3s2)CC1 (stereo not given) | 0.009 | ED50 (Mus musculus): 1 mg/kg; Ki (Cathepsin B): 3.2 µM |
| NC(=O)C(=O)C(Cc1ccccc1)NC(=O)C1CCN(Cc2ccc3ccccc3c2)CC1 (stereo not given) | 13.6 | – |
| CCNC(=O)C(=O)C(Cc1ccccc1)NC(=O)C1CCN(S(=O)(=O)c2ccc3ccccc3c2)CC1 (stereo not given) | 800 | – |
| O=C(NCCCN1CCOCC1)C(=O)C(Cc1ccccc1)NC(=O)C1CCN(C(=O)c2ccc3ccccc3c2)CC1 (stereo not given) | 0.96 | – |
| NC(=O)C(=O)C(Cc1ccccc1)NC(=O)C1CCN(C(=O)c2ccc3ccccc3c2)CC1 (stereo not given) | 0.03 | IC50 [2]: 1.8 µM; ED50 (Mus musculus): 1.3 mg/kg; Ki (Cathepsin B): 7.3 µM |
| NC(=O)C(=O)C(Cc1ccccc1)NC(=O)C1CCN(C(=O)/C=C/c2ccccc2)CC1 (stereo not given) | 0.46 | – |
| CC(C)[C@H](NC(=O)OCc1ccccc1)C(=O)NC(C=O)Cc1ccccc1 (stereo partly drawn) (Cbz-Val-[ξF]-aldehyde) | – | IC50 [2]: 0.7 µM |
